Test results published in patent US20130303507A1 (Novartis AG, priority 2011, published 2013).
Several values for one entry are separate records, joined by “and”; a condition that tells them apart may be missing. Equal values may be shown once. Read-outs that look alike come from different tables or passages of the source.

How the values were obtained:
neointima formation = details: in rats; cited from earlier work
Cdk9/cyclinT1 = Cdk9/cyclinT1 (Homo sapiens, UniProt P50750); experiment: Cdk9/cyclinT1 Alpha Screen protocol; format: biochemical; set-up: Full length wild type Cdk9/cyclin T1 is purchased from Invitrogen; purchased Invitrogen PV4131; details: individual determinations, read-out: CDK9_cyclinT1_AS2_IC50
Cdk9/cyclinT1, sequence (P50750 whole entry): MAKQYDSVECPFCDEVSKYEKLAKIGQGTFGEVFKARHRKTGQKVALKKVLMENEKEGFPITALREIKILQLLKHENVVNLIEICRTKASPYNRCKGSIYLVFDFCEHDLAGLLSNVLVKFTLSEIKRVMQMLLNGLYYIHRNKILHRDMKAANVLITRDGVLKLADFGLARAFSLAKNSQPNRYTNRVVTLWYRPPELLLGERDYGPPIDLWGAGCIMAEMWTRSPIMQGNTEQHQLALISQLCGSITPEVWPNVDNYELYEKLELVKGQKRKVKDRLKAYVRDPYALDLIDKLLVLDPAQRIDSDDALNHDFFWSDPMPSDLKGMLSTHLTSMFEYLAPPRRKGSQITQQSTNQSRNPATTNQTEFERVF
Cdk9/cyclinT1, sequence (O60563 whole entry partner): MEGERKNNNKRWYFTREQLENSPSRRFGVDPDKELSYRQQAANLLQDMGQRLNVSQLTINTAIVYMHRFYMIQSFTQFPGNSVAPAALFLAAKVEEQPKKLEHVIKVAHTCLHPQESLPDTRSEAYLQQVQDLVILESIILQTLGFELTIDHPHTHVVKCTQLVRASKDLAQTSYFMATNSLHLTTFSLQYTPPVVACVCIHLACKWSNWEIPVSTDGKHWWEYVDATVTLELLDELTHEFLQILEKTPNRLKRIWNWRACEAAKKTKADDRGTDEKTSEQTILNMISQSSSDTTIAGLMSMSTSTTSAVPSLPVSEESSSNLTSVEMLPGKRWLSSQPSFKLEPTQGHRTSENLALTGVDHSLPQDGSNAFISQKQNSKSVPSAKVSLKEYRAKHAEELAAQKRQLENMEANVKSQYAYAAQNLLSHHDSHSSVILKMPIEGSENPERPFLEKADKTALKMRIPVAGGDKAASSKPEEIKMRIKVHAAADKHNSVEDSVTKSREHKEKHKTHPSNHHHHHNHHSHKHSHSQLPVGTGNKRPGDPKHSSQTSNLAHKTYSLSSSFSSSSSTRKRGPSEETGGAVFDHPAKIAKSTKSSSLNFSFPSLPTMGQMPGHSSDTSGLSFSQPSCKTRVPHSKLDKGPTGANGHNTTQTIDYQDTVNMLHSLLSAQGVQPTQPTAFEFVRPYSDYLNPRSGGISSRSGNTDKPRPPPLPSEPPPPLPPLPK
Method: Cdk9/cyclinT1 Alpha Screen Protocol
Full length wild type Cdk9/cyclin T1 is purchased from Invitrogen, cat#PV4131. […] The cdk7tide peptide substrate, biotin-[…] -OH, is a custom synthesis purchased from the Tufts University Core Facility. The final concentration of cdk7tide peptide substrate is 200 nM. […] Phospho-Rpb1 CTD (ser2/5) substrate antibody is purchased from Cell Signaling Technology. The final concentration of antibody is 0.67 ug/ml. The Alpha Screen Protein A detection kit containing donor and acceptor beads is purchased from PerkinElmer Life Sciences. The final concentration of both donor and acceptor beads is 15 ug/ml. Alpha Screen is used for detection. […] The biotinylated-cdk7tide peptide substrate is bound to the streptavidin coated donor bead. The antibody is bound to the protein A coated acceptor bead. The antibody will bind to the phosphorylated form of the biotinylated-cdk7tide peptide substrate, bringing the donor and acceptor beads into close proximity. Laser irradiation of the donor bead at 680 nm generates a flow of short-lived singlet oxygen molecules. When the donor and acceptor beads are in close proximity, the reactive oxygen generated by the irradiation of the donor beads initiates a luminescence/fluorescence cascade in the acceptor beads. This process leads to a highly amplified signal with output in the 530-620 nm range. Assays are carried out in 50 mM Hepes, pH=7.5, 10 mM MgCl2, 0.1% Bovine Serum Albumin, 0.01% Tween-20, 1 mM Dithiothreitol, 2.5% Dimethyl Sulfoxide. Stop and detection steps are combined using 50 mM Hepes, pH=7.5, 18 mM EDTA, 0.1% Bovine Serum Albumin, 0.01% Tween-20.

Row | SMILES | inhibition of neointima formation (neointima formation) | IC50 (Cdk9/cyclinT1; neutral species) | IC50 (Cdk9/cyclinT1; TFA salt)
1 | COc1ccc(CNc2nc(N(CCO)CCO)nc3c2ncn3C(C)C)cc1 [CVT-313] | greater than 80% |  | 
2 | N#CC1(CNc2cccc(-c3cc(N[C@H]4CC[C@@H](N5CC6(COC6)C5)CC4)ncc3Cl)n2)CCOCC1 [Compound 547] |  | 6.15 nM | 
3 | N#CC1(COc2cncc(-c3cc(NC4CCCNCC4)ncc3Cl)n2)CCOCC1 (stereo not shown) [Compound 583] |  | 11 nM | 
4 | N#CC1(CNc2cccc(-c3cc(N[C@H]4CC[C@H](NC[C@@H](O)CF)CC4)ncc3Cl)n2)CCOCC1 [Compound 544] |  |  | 0.2 nM
5 | [2H][C@@](C)(COC)N[C@H]1CC[C@H](Nc2cc(-c3cccc(NCC4(C#N)CCOCC4)n3)c(Cl)cn2)CC1 [Compound 596] |  | < 1 nM | 
6 | COC(C)(C)CN[C@H]1CC[C@H](Nc2cc(-c3cccc(NCC4(C#N)CCOCC4)n3)c(Cl)cn2)CC1 [Compound 529] |  | 0.281 nM | 
7 | CC(C)(O)CN[C@H]1CC[C@H](Nc2cc(-c3cccc(NCC4(C#N)CCOCC4)n3)c(Cl)cn2)CC1 [Compound 521] |  | 0.475 nM | 
8 | [2H]C([2H])([2H])OC[C@H](C)N[C@H]1CC[C@H](Nc2cc(-c3cncc(OCC4(C#N)CCOCC4)n3)c(Cl)cn2)CC1 [Compound 598] |  | 1 nM | 
9 | CO[C@H]1CCN([C@H]2CC[C@@H](Nc3cc(-c4cccc(NCC5(C#N)CCOCC5)n4)c(F)cn3)CC2)C1 [Compound 517] |  | 8.61 nM | 
10 | C[C@@](O)(CN[C@H]1CC[C@H](Nc2cc(-c3cccc(NCC4(C#N)CCOCC4)n3)c(Cl)cn2)CC1)C(F)(F)F [Compound 577] |  |  | 0.432 nM and 0.255 nM
11 | COC[C@@H](C)NC[C@H]1CC[C@H](Nc2cc(-c3cccc(NCC4(C#N)CCOCC4)n3)c(Cl)cn2)CC1 [Compound 532] |  |  | 0.703 nM
12 | N#CC1(COc2cncc(-c3cc(N[C@H]4CC[C@@H](N5CCCOCC5)CC4)ncc3Cl)n2)CCOCC1 [Compound 549] |  | 55.6 nM | 
13 | COC[C@@H](C)N(O)[C@H]1CC[C@H](Nc2cc(-c3cncc(OCC4(C#N)CCOCC4)n3)c(Cl)cn2)CC1 [Compound 581] |  | 1 nM | 
14 | COC[C@H](C)NC[C@H]1CC[C@H](Nc2cc(-c3cccc(NCC4(C#N)CCOCC4)n3)c(Cl)cn2)CC1 [Compound 533] |  |  | 0.867 nM
15 | N#CC1(CNc2cccc(-c3cc(N[C@H]4CC[C@H](N5CCC6(COC6)C5)CC4)ncc3Cl)n2)CCOCC1 [Compound 570] |  | 1.34 nM | 
16 | N#CC1(CNc2cccc(-c3cc(N[C@H]4CC[C@@H](N5CCCOCC5)CC4)ncc3Cl)n2)CCOCC1 [Compound 538] |  |  | 19.8 nM and 20.9 nM
17 | COC[C@@H](C)N[C@H]1CC[C@H](Nc2cc(-c3cccc(NCC4(C#N)CC4)n3)c(F)cn2)CC1 [Compound 551] |  | 0.299 nM and 0.303 nM and 0.654 nM | 0.0753 nM and 0.28 nM and 0.0939 nM
18 | COC[C@H](C)N[C@H]1CC[C@H](Nc2cc(-c3cccc(NCC4(C#N)CCOCC4)n3)c(F)cn2)CC1 [Compound 520] |  |  | 0.458 nM and 0.413 nM
19 | C[C@H](CO)N[C@H]1CC[C@H](Nc2cc(-c3cncc(OCC4(C#N)CCOCC4)n3)c(F)cn2)CC1 [Compound 592] |  | < 1 nM | 

Row | SMILES | inhibition of neointima formation (neointima formation) | IC50 (Cdk9/cyclinT1; neutral species) | IC50 (Cdk9/cyclinT1; TFA salt)
20 | CC(C)(C)OCCN[C@H]1CC[C@H](Nc2cc(-c3cccc(NCC4(C#N)CCOCC4)n3)c(Cl)cn2)CC1 [Compound 515] |  | 0.217 nM | 2.19 nM
21 | C[C@H](CO)N[C@H]1CC[C@@H](Nc2cc(-c3cncc(OCC4(C#N)CCOCC4)n3)c(Cl)cn2)CC1 [Compound 591] |  | < 1 nM | 
22 | N#CC1(CNc2cccc(-c3cc(N[C@H]4CC[C@H](NC5CC(F)(F)C5)CC4)ncc3Cl)n2)CCOCC1 [Compound 563] |  | 0.416 nM | 
23 | COCCN[C@H]1CC[C@H](Nc2cc(-c3cncc(OCC4(C#N)CC4)n3)c(F)cn2)CC1 [Compound 556] |  | 0.628 nM | 
24 | [2H]C([2H])([2H])OCC(C)N[C@H]1CC[C@H](Nc2cc(-c3cncc(OCC4(C#N)CCOCC4)n3)c(Cl)cn2)CC1 (stereo partly shown) [Compound 595] |  | < 1 nM | 
25 | C[C@H](CO)N[C@H]1CC[C@H](Nc2cc(-c3cccc(NCC4(C#N)CCOCC4)n3)c(Cl)cn2)CC1 [Compound 584] |  | < 1 nM | 
26 | C[C@H](O)[C@@H](C)N[C@H]1CC[C@H](Nc2cc(-c3cccc(NCC4(C#N)CCOCC4)n3)c(Cl)cn2)CC1 [Compound 543] |  |  | 0.229 nM
27 | [2H]C(C)(COC)N[C@H]1CC[C@H](Nc2cc(-c3cccc(NCC4(C#N)CCOCC4)n3)c(Cl)cn2)CC1 (stereo partly shown) [Compound 594] |  | < 1 nM | 
28 | N#CC1(COc2cncc(-c3cc(N[C@H]4CC[C@H](N5CCCOCC5)CC4)ncc3Cl)n2)CCOCC1 [Compound 548] |  | 1.01 nM | 
29 | COC[C@@H](C)N[C@H]1CC[C@H](Nc2cc(-c3cncc(OCC4(C#N)CCOCC4)n3)c(F)cn2)CC1 [Compound 553] |  | 0.654 nM | 0.718 nM and 0.262 nM and 0.579 nM
30 | N#CC1(CNc2cccc(-c3cc(N[C@H]4CC[C@H](O)CC4)ncc3F)n2)CCOCC1 [Compound 576] |  |  | 0.137 nM
31 | CC(C)(C)OCCN[C@H]1CC[C@H](Nc2cc(-c3cccc(NCC4(C#N)CCOCC4)n3)c(F)cn2)CC1 [Compound 527] |  | 0.594 nM | 
32 | CC(C)(O)CN[C@H]1CC[C@H](Nc2cc(-c3cncc(OCC4(C#N)CCOCC4)n3)c(Cl)cn2)CC1 [Compound 524] |  | 0.85 nM | 
33 | N#CC1(CN[C@H]2CC[C@H](Nc3cc(-c4cncc(OCC5(C#N)CCOCC5)n4)c(Cl)cn3)CC2)CC1 [Compound 567] |  | 0.754 nM and 0.279 nM | 
34 | [2H][C@](C)(COC)N[C@H]1CC[C@H](Nc2cc(-c3cccc(NCC4(C#N)CCOCC4)n3)c(Cl)cn2)CC1 [Compound 597] |  | < 1 nM | 
35 | N#CC1(CNc2cccc(-c3cc(N[C@H]4CC[C@H](N[C@H]5CCCC[C@@H]5O)CC4)ncc3Cl)n2)CCOCC1 [Compound 588] |  | < 1 nM | 
36 | C[C@H](CO)N[C@H]1CC[C@@H](Nc2cc(-c3cncc(OCC4(C#N)CCOCC4)n3)c(F)cn2)CC1 [Compound 593] |  | 25 nM | 
37 | COCCN(C1CC1)[C@H]1CC[C@H](Nc2cc(-c3cncc(OCC4(C#N)CCOCC4)n3)c(F)cn2)CC1 [Compound 555] |  | 2.13 nM | 
